Where a name gives a salt, the structure may show the parent alone.

Turning to `OC1CCCN(C(=Nc2ccccc2)NC(=Nc2ccccc2)c2ccccc2)C1` (centres unmarked) (as salt: nitrate) [Example 38, N-[(3-hydroxy-piperidin-1-yl)-phenylimino-methyl]-N′-phenyl-benzamidine], the melting point was 189 to 192 °C.

Take `COc1ccc(NC(=NC(=Nc2ccccc2)N2CCCC2)c2ccccc2)cc1` (as salt: hydrochloride) [Example 15, N-(4-methoxy-phenyl)-N′-(phenylimino-pyrrolidin-1-yl-methyl)-benzamidine]: the melting point was 244 to 245 °C.

Compound `Cc1ccccc1C(=Nc1ccc(F)cc1)NC(=NC1CCCCC1)C1(C)CCCCC1` (as salt: hydrochloride) [Example 96, N-[cyclohexylimino-(1-methyl-cyclohexyl)-methyl]-N′-(4-fluoro-phenyl)-2-methyl-benzamidine] gave a melting point of 127 to 129 °C.

Turning to `Cc1cccc(C)c1C(=Nc1ccc(F)cc1)NC(=Nc1ccccc1)N1C(C)CCCC1C` (centres unmarked) (as salt: hydrochloride) [Example 48, N-[(2,6-dimethyl-piperidin-1-yl)-phenylimino-methyl]-N′-(4-fluoro-phenyl)-2,6-dimethyl-benzamidine], the melting point is 172 to 174 °C (dec.).

Turning to `c1ccc(N=C(NC(=Nc2ccccc2)N2CCCCCCC2)c2ccccc2)cc1` (as salt: hydroiodid) [Example 22, N-(azocan-1-yl-phenylimino-methyl)-N′-phenyl-benzamidine], the melting point was 252 to 253 °C (dec.).

On to `Fc1ccc(N=C(NC(=Nc2ccccc2)N2CCCCCC2)c2ccccc2)cc1` (as salt: hydroiodid) [Example 19, N-(azepan-1-yl-phenylimino-methyl)-N′-(4-fluoro-phenyl)-benzamidine], for which the melting point is > 228 °C (dec.).

`Cc1ccccc1C(=Nc1ccc(F)cc1)NC(=NC1CC1)C1(C)CCCCC1` (as salt: hydrochloride) [Example 106, N-[cyclopropylimino-(1-methyl-cyclohexyl)-methyl]-N′-(4-fluoro-phenyl)-2-methyl-benzamidine] registered a melting point of 205 to 207 °C.

`Cc1cccc(C)c1C(=NC(=Nc1ccccc1)N1CCC(=O)CC1)Nc1ccc(F)cc1` (as salt: hydrochloride) [Example 63, N-(4-fluoro-phenyl)-2,6-dimethyl-N′-[(4-oxo-piperidin-1-yl)-phenylimino-methyl]-benzamidine]: the melting point was 228 to 229 °C (dec.).

As to `Cc1cccc(C)c1C(=Nc1ccc(F)cc1)NC(=NC1CC1)N1CCCCO1` (as salt: hydrochloride) [Example 104, N-(cyclopropylimino-[1,2]oxazinan-2-yl-methyl)-N′-(4-fluoro-phenyl)-2,6-dimethyl-benzamidine], the melting point is 229 to 231 °C (dec.).

As for `Cc1cccc(C)c1C(=NC(=Nc1cccnc1)N1CCCCC1C)Nc1ccc(F)cc1` (centres unmarked) (as salt: hydrochloride) [Example 86, N-(4-fluoro-phenyl)-2,6-dimethyl-N′-[(2-methyl-piperidin-1-yl)-(pyridin-3-ylimino)-methyl]-benzamidine], the melting point fell in the range of 207 to 210 °C.

`Cc1ccccc1C(=NC(=Nc1ccccc1)N1CCCCC1C)Nc1ccc(F)cc1` (centres unmarked) (as salt: hydrochloride) [Example 28, N-(4-fluoro-phenyl)-2-methyl-N′-[(2-methyl-piperidin-1-yl)-phenylimino-methyl]-benzamidine]: the melting point lay within 173 to 175 °C.

Regarding `Cc1cccc(C)c1C(=NC(=NC(C)C)N1CCCCC1C)Nc1ccc(F)cc1` (centres unmarked) (as salt: hydrochloride) [Example 99, N-(4-fluoro-phenyl)-N′-[isopropylimino-(2-methyl-piperidin-1-yl)-methyl]-2,6-dimethyl-benzamidine], the melting point was 208 to 210 °C (dec.).

The compound `Clc1ccc(NC(=NC(=Nc2ccccc2)N2CCCC2)c2ccccc2)cc1` (as salt: hydrochloride) [Example 16, N-(4-chloro-phenyl)-N′-(phenylimino-pyrrolidin-1-yl-methyl)-benzamidine] showed a melting point of 219 to 221 °C.

As to `COc1ccc(NC(=NC(=Nc2ccccc2)N2CCCCC2C)c2ccccc2C)cc1` (centres unmarked) (as salt: hydrochloride) [Example 60, N-(4-methoxy-phenyl)-2-methyl-N′-[(2-methyl-piperidin-1-yl)-phenylimino-methyl]-benzamidine], the melting point is 162 to 164 °C (dec.).

Compound `c1ccc(N=C(N=C(Nc2ccccc2)c2ccccc2)N2CCCC2)cc1` (as salt: hydrochloride) [Example 1, N-Phenyl-N′-(phenylimino-pyrrolidin-1-yl-methyl)-benzamidine] displayed a melting point of 246 to 247 °C.

Take `Cc1cccc(C)c1C(=Nc1ccc(F)cc1)NC(=NC1CCC1)N1CCCCC1C` (centres unmarked) (as salt: hydrochloride) [Example 102, N-[cyclobutylimino-(2-methyl-piperidin-1-yl)-methyl]-N′-(4-fluoro-phenyl)-2,6-dimethyl-benzamidine]: the melting point fell in the range of 136 to 138 °C.

`Cc1cccc(C)c1C(=NC(=Nc1ccccc1)N1CCCC(O)C1)Nc1ccc(F)cc1` (centres unmarked) (as salt: hydrochloride) [Example 62, N-(4-fluoro-phenyl)-N′-[(3-hydroxy-piperidin-1-yl)-phenylimino-methyl]-2,6-dimethyl-benzamidine]: the melting point is 196 to 198 °C (dec.).

For `Fc1ccc(NC(=NC(=Nc2ccccc2)N2CCCC2)c2ccccc2)cc1` (as salt: hydrochloride) [Example 2, N-(4-Fluoro-phenyl)-N′-(phenylimino-pyrrolidin-1-yl-methyl)-benzamidine], the melting point is 259 to 260 °C (dec.).

Take `Fc1ccc(N=C(NC(=Nc2ccccc2)c2ccccc2)N2CCCC2)cc1` (as salt: hydrochloride) [Example 25, N-[(4-fluoro-phenylimino)-pyrrolidin-1-yl-methyl]-N′-phenyl-benzamidine]: the melting point was 242 to 243 °C.

`Cc1cccc(C)c1C(=NC(=Nc1ccccc1)N1CCC(=O)CC1C)Nc1ccc(F)cc1` (centres unmarked) (as salt: hydrochloride) [Example 65, N-(4-fluoro-phenyl)-2,6-dimethyl-N′-[(2-methyl-4-oxo-piperidin-1-yl)-phenylimino-methyl]-benzamidine] had a melting point of 215 to 217 °C.

For the compound `Cc1cccc(C)c1C(=Nc1ccc(F)cc1)NC(=Nc1ccccc1Cl)N1CCCCC1C` (centres unmarked) (as salt: hydrochloride) [Example 85, N-[(2-chloro-phenylimino)-(2-methyl-piperidin-1-yl)-methyl]-N′-(4-fluoro-phenyl)-2,6-dimethyl-benzamidine], the melting point is 207 to 209 °C.

`Cc1ccccc1C(=Nc1ccc(F)cc1)NC(=Nc1ccccc1)N1CCCCCC1` (as salt: hydrochloride) [Example 34, N-(azepan-1-yl-phenylimino-methyl)-N′-(4-fluoro-phenyl)-2-methyl-benzamidine]: the melting point fell in the range of 240 to 242 °C.

The compound `CC1CCCCN1C(=Nc1ccccc1)NC(=Nc1ccc(F)cc1)c1ccccc1Cl` (centres unmarked) (as salt: hydrochloride) [Example 37, N-[(2-chloro-phenyl)-(4-fluoro-phenylimino)-methyl]2-methyl-N′-phenyl-piperidine-1-carboxamidine] yielded a melting point of 145 to 147 °C.

`Cc1ccccc1C(=Nc1ccc(F)cc1)NC(=Nc1ccccc1)C12CC3CC(CC(C3)C1)C2` (as salt: hydrochloride) [Example 47, N-(adamantan-1-yl-phenylimino-methyl)-N′-(4-fluoro-phenyl)-2-methyl-benzamidine] showed a melting point of 219 to 221 °C.

As to `CC1CCCCN1C(N=C(Nc1ccc(F)cc1)c1c(F)cccc1F)=Nc1ccc(F)cc1` (centres unmarked) (as salt: nitrate) [Example 51, 2,6-difluoro-N-(4-fluoro-phenyl)-N′-[(4-fluoro-phenylimino)-(2-methyl-piperidin-1-yl)-methyl]-benzamidine], the melting point fell in the range of 171 to 173 °C.

`Cc1ccccc1C(=CC(=Nc1ccccc1)N1CCCCO1)Nc1ccc(F)cc1` (as salt: nitrate) [Example 91, (3-phenylimino-3-[1,2]oxazinan-2-yl-1-o-tolyl-propenyl)-(4-fluoro-phenyl)-amine]: the melting point was in the range of 151 to 153 °C.

For `Cc1ccccc1C(=Nc1ccccc1)NC(=Nc1ccc(F)cc1)N1CCC(O)CC1` (as salt: hydrochloride) [Example 29, N-[(4-fluoro-phenylimino)-(4-hydroxy-piperidin-1-yl)-methyl]-2-methyl-N′-phenyl-benzamidine], the melting point lay within 224 to 225 °C.

For the compound `Cc1ccccc1C(=NC(=Nc1ccccc1)N1CCC(O)CC1)Nc1ccc(F)cc1` (as salt: hydrochloride) [Example 26, N-(4-fluoro-phenyl)-N′-[(4-hydroxy-piperidin-1-yl)-phenylimino-methyl]-2-methyl-benzamidine], the melting point is 228 to 230 °C (dec.).

In turn, `Cc1cccc(C)c1C(=Nc1ccccc1)NC(=Nc1ccccc1)N1CCCC1` (as salt: hydroiodid) [Example 31, N-[(2,6-dimethyl-phenyl)-phenylimino-methyl]-N′-phenyl-pyrrolidine-1-carboxamidine] returned a melting point of 255 to 257 °C.

Consider `Cc1ccccc1C(=NC(=Nc1ccccc1)N1CCCC(O)C1)Nc1ccc(F)cc1` (centres unmarked) (as salt: hydrochloride) [Example 66, N-(4-fluoro-phenyl)-N′-[(3-hydroxy-piperidin-1-yl)-phenylimino-methyl]-2-methyl-benzamidine], for which the melting point is > 150 °C.

`COc1ccc(N=C(NC(=Nc2ccccc2)N2CCCCCC2)c2ccccc2)cc1` (as salt: hydroiodid) [Example 18, N-(azepan-1-yl-phenylimino-methyl)-N′-(4-methoxy-phenyl)-benzamidine]: the melting point lay within 241 to 243 °C.

For the compound `Cc1cccc(C)c1C(=NC(=Nc1ccccc1)N1CCC(O)CC1C)Nc1ccc(F)cc1` (centres unmarked) (as salt: hydrochloride) [Example 82, N-(4-fluoro-phenyl)-N′-[(4-hydroxy-2-methyl-piperidin-1-yl)-phenylimino-methyl]-2,6-dimethyl-benzamidine], the melting point lay within 169 to 172 °C.
